Experiments:
[1] = system: Calli of V. vinifera cv. Chardonnay; test: Phytotoxicity on grapevine cell clusters (calli) (Example 4); format: cell-based, V. vinifera L. cv. Chardonnay; details: for appearance and color of the calli: MPM1 medium supplemented with 5 or 10 mM
Protocol: Calli (or undifferentiated cell clusters) of V. vinifera cv. Chardonnay are obtained from anthers as described in Mauro et al. (1986) and in Bertsch et al. (2005).
All the calli are inoculated on fresh solid MPM1 medium (Perrin et al. 2004) every 3 weeks and incubated at 25±0.5° C. in the dark with a relative humidity of 70±10%.
This experiment was repeated three times. For each condition, 15 white-yellow calli, with a diameter of 10±2 mm, were used.
Calli growth in each condition tested is evaluated by weighing each day for 5 days. Duncan's statistical test (with p≦0.05) was applied to the means and standard deviations of the results thus obtained. In addition to weighing, we visually evaluate the appearance and color of the calli according to their culture medium for 2 months.

[2] = system: N. parvum isolate Bourgogne S-116; test: Mycelial growth of N. parvum on supplemented PDA medium (Example 1); format: cell-based, Neofusicoccum parvum; details: after 4 days, versus control (100%)
[3] = system: B. cinerea B0510; test: Mycelial growth of B. cinerea on supplemented PDA medium (Example 2); format: cell-based, Botrytis cinerea; details: after 8 days, versus control (100%)
[4] = system: N. parvum isolate Bourgogne S-116; parameters: species or system V. vinifera L. cv. Chardonnay; details: in vivo

Row | Compound | appearance and color of the calli [1] | growth of the calli (weighing) ([1]; supplemented MPM1 medium, 5 days of culture) | inhibition of the growth of the fungus on the culture medium [2] | inhibition of the growth of the fungus on the culture medium [3] | inhibition of the development of necrosis on the inoculated internodes [4] | reduction in the surface area of the necrotic lesions [4]
1 | O=C1[O][Bi]([OH])[O]c2ccccc21 [bismuth subsalicylate] | light grayish coloring at the periphery of the calli but no necrosis | no impact in terms of growth, multiplication or necrotic appearance | – | – | – | –
2 | [O-2].[O-2].[O-2].[Sb+3].[Sb+3] [antimony oxide] | – | – | do not significantly inhibit the growth of the fungus | do not significantly inhibit the growth of the fungus | – | –
3 | O=C(O)c1ccccc1O [salicylic acid] | light grayish coloring at the periphery of the calli but no necrosis | – | – | – | does not significantly inhibit the development of necrosis | –
4 | [Bi+3].[Bi+3].[O-2].[O-2].[O-2] [bismuth oxide] | no change | – | do not significantly inhibit the growth of the fungus | do not significantly inhibit the growth of the fungus | – | 5%
5 | O=C([O-])CC(O)(CC(=O)[O-])C(=O)[O-].[Bi+3] [bismuth citrate] | – | – | do not significantly inhibit the growth of the fungus | do not significantly inhibit the growth of the fungus | – | –

— patent US20170311603A1 (priority 2014, published 2017)
